Test results published in paper PMC5447021, “TNF Lectin-Like Domain Restores Epithelial Sodium Channel Function in Frameshift Mutants Associated with Pseudohypoaldosteronism Type 1B” (Frontiers in Immunology, 2017).
“Also recorded” adds a separate entry of the source. Marks after values point to notes of the source that are not given here.

How the values were obtained:
αL576Xβγ-ENaC = details: cited from earlier work
[1] = tested on: αE272fs (co-expressed with βγ-ENaC); assay: Whole-cell patch clamp, αE272fs + WT βγ; assay type: cell-based, human; details: read-out: EC50, solnatide, HEK-293, whole-cell, -100 mV, n = 5, p < 0.001 vs WT
Description: (§1) Point mutations of α-, β-, γ- and δ-hENaC and PHA1B frameshift mutations of α-hENaC were prepared with the QuikChange Lightning Site-Directed Mutagenesis Kit (Agilent Technologies, CA, USA). Mutagenic primers were designed individually with the Primer Design Program provided on the producer’s website or for the frameshift mutations the same base changes as reported in patients (see Table 2) were performed. Primers were ordered from Sigma-Aldrich, Vienna, Austria.
(§2) HEK-293 cells were transfected 1 day after cell seeding using X-tremeGENE HP DNA transfection reagent (Roche Diagnostics, Mannheim, Germany) according to the manufacturer’s protocol. A set of WT or mutant αβγ- or δβγ-hENaC, or α-, β-, γ-, or δ-hENaC alone was used, and the ratio of DNA to transfection reagent was 1:3. The expression was highest 48–72 h after transfection.
(§3) Electrophysiological experiments were performed as described in detail by Shabbir et al. ([16]). […] Currents were recorded with the patch clamp method in the whole-cell mode. The chamber contained 1 ml of the bath solution of the following composition (in mM): 145 NaCl, 2.7 KCl, 1.8 CaCl2, 2 MgCl2, 5.5 glucose, and 10 HEPES, adjusted to pH 7.4 with 1 M NaOH solution. Micropipettes were pulled from thin-walled borosilicate glass capillaries (Harvard Apparatus, Holliston, MA, USA) with a DMZ Zeitz Puller to obtain electrode resistances ranging from 2 to 5 MΩ. […]

[2] = tested on: αT169fs (co-expressed with βγ-ENaC); assay: Whole-cell patch clamp, αT169fs + WT βγ; assay type: cell-based, human; details: read-out: EC50, solnatide, HEK-293, whole-cell, -100 mV, n = 9
Description: as §1, §2, §3

α-ENaC (WT αβγ-ENaC) = details: HEK-293, 5 and 10 min; returns after 1 h; cited from earlier work
αR448fs = assay: Membrane abundance of αR448fs; assay type: cell-based, human; details: n = 4
Description: Cell surface biotinylation was performed as previously described ([26]). In brief, A549 cells or transiently transfected HEK-293 cells were grown in 10 cm dishes in 37°C, 5% CO2 incubator in DMEM medium supplemented with 5% FBS. […] Medium was aspirated, and then cells were washed twice with 10 ml ice-cold phosphate-buffered saline (PBS), covered with 2.5 mg EZ-Link Sulfo-NHS-SS-Biotin (Thermo Scientific, Rockford, USA), dissolved in 10 ml ice-cold PBS, and incubated at 4°C with gentle agitation for 30 min. Fifty milliliters of quenching solution were added to cells; then cells were scraped in solution and transferred to fresh 50 ml tube. Cell suspension was centrifuged at 500 × g for 3 min. Supernatant was discarded, and 5 ml of Tris-buffered saline (TBS) was added to the cell pellet. The cell pellet was resuspended and centrifuged at 500 × g for 3 min. Supernatant was discarded and cell pellet was resuspended in lysis buffer containing protease inhibitor cocktail (10 µM pepstatin A, 10 µM phenylmethylsulfonyl fluoride, and 10 µM leupeptin) and transferred to fresh 1.5 ml centrifuge tube. Cell pellet was then homogenized on ice by ultrasonication using 1 s bursts and incubated on ice for at least 30 min. Intact cells and nuclei were pelleted by centrifugation at 10,000 × g for 2 min under cooling conditions. Pellet was then discarded and supernatant was transferred to fresh tube, incubated overnight with 0.5 ml NeutrAvidin Agarose under gentle rotation at 4°C and centrifuged at 500 × g for 5 min under cooling conditions. Supernatant was then discarded and the pellet washed twice with 200 µl lysis buffer. The biotinylated proteins were eluted with 100 µl sodium dodecyl sulfate (SDS) sample buffer (62.5 mM Tris, pH 6.8, 1% SDS, 10% glycerine, 50 mM dithiothreitol) containing 10 µM E64 at 65°C for 10 min. Sample was then centrifuged at 500 × g for 2 min. Pellet was discarded and supernatant subjected to protein electrophoresis and immunoblotting. The biotinylated proteins were separated under reducing conditions by SDS-PAGE using 7.5% SDS gel along with prestained protein marker (cat. #12949 from Cell Signaling). Proteins were then transferred onto a nitrocellulose membrane (UltraCruzTM […], Santa Cruz Biotechnology, TX, USA) by semi-dry blotting at 25 V for 30 min. Unspecific binding sites were blocked by incubating the membrane overnight at 4°C with 3% FBS in PBS supplemented with 0.02% sodium azide. Membrane was then incubated for 90 min with primary antibody (anti-α-hENaC, anti-δ-hENaC, and anti-β-actin from Sigma Aldrich; anti-β- and anti-γ-hENaC from Santa Cruz Biotechnology). […] Exposed films were scanned and quantified using ImageJ (NIH, MD, USA). […]

## C[C@@H]1NC(=O)CNC(=O)[C@H](CCC(=O)O)NC(=O)[C@@H]2CCCN2C(=O)[C@H]([C@@H](C)O)NC(=O)[C@H](CCC(=O)O)NC(=O)[C@H](CCCNC(=N)N)NC(=O)[C@H](CCC(N)=O)NC(=O)CNC(=O)[C@@H](N)CSSC[C@@H](C(=O)O)NC(=O)[C@H](Cc2ccc(O)cc2)NC(=O)[C@H](Cc2c[nH]c3ccccc23)NC(=O)[C@@H]2CCCN2C(=O)[C@H](CCCCN)NC(=O)[C@H](C)NC(=O)[C@H](CCC(=O)O)NC1=O [solnatide, L-cysteine, L-cysteinylglycyl-L-glutaminyl-L-arginyl-L-α-glutamyl-L-threonyl-L-prolyl-L-α-glutamylglycyl-L-alanyl-L-α-glutamyl-L-alanyl-L-lysyl-L-prolyl-L-tryptophyl-L-tyrosyl-, cyclic (1→17)-disulfide]
αL576Xβγ-ENaC
  Effect of solnatide on amiloride-sensitive current: a residual albeit non-significant increase in the amiloride-sensitive current
αL576Xβγ-ENaC; glycosylation sites in extracellular loop removed by mutation
  Current increase, glycosylation sites removed: small increase was not seen
[1]
  EC50: 75.6 ± 5.4 nM
[2]
  EC50: 58.3 ± 5.2 nM
α-ENaC (WT αβγ-ENaC)
  Membrane abundance, solnatide: significant statistically
αR448fs; glycosylated αR448fs, 200 nM solnatide, 5 min
  Membrane abundance: highly increased after 5 min of solnatide treatment
αR448fs; αR448fs, 200 nM solnatide, 100 units PNGase F
  Increase in membrane abundance after PNGase F: completely abolished in deglycosylated mutants; also recorded: after PNGase F treatment no differences can be observed
αR448fs; αR448fs, 200 nM, 5 min, relative to WT control (=1), own control 1.32 ± 0.10, p < 0.001 vs control
  Membrane abundance, solnatide 5 min: 5.88 ± 0.32***
αR448fs; αR448fs, 200 nM, 10 min, relative to WT control (=1), own control 1.32 ± 0.10
  Membrane abundance, solnatide 10 min: 1.30 ± 0.12
